ChEMBL document CHEMBL1201862, “PubChem BioAssay data set” (2004)
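Grown in 96-well plates, cells were treated for 48 hours with each compound at five concentrations. Insufficient inhibition: endpoint recorded as highest concentration tested. GI50: concentration for 50% inhibition of growth.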 Calls of active or inactive are those of the source. No stated cut-off is given here; in the data, active = GI50 up to about 1.1 µM and inactive = higher.

Key:
Assay in all cases: NCI tumour cell line growth inhibition, 48 h
[1] = tested on: MOLT-4
[2] = tested on: KM12
[3] = tested on: OVCAR-5
[4] = tested on: NCI-H460
[5] = tested on: SF-295
[6] = tested on: IGROV-1
[7] = tested on: EKVX
[8] = tested on: UACC-257
[9] = tested on: CAKI-1
[10] = tested on: HCT-15
[11] = tested on: RPMI-8226
[12] = tested on: OVCAR-4
[13] = tested on: SR
[14] = tested on: UO-31
[15] = tested on: COLO 205
[16] = tested on: UACC-62
[17] = tested on: SF-539
[18] = tested on: A498

| Structure (SMILES) | GI50 [1] | GI50 [2] | GI50 [3] | GI50 [4] | GI50 [5] | GI50 [6] | GI50 [7] | GI50 [8] | GI50 [9] | GI50 [10] [µM] | GI50 [11] | GI50 [12] | GI50 [13] | GI50 [14] | GI50 [15] | GI50 [16] | GI50 [17] | GI50 [18] |
| --- | --- | --- | --- | --- | --- | --- | --- | --- | --- | --- | --- | --- | --- | --- | --- | --- | --- | --- |
| CC1=C(C(=O)Nc2ccccc2C)C(c2ccc(Cl)cc2)C(C(=O)Nc2ccccc2C)=C(C)N1 | > 100 µM (inactive) | > 100 µM (inactive) | > 100 µM (inactive) | > 100 µM (inactive) | > 100 µM (inactive) | > 100 µM (inactive) | > 100 µM (inactive) | > 100 µM (inactive) | > 100 µM (inactive) | > 100 | > 100 µM (inactive) | > 100 µM (inactive) | > 100 µM (inactive) | > 100 µM (inactive) | > 100 µM (inactive) | > 100 µM (inactive) | > 100 µM (inactive) | – |
| N#CC(C#N)=Cc1ccc(CP(=O)(O)O)cc1 | > 100 µM (inactive) | > 100 µM (inactive) | > 100 µM (inactive) | > 100 µM (inactive) | > 100 µM (inactive) | > 100 µM (inactive) | > 100 µM (inactive) | > 100 µM (inactive) | > 100 µM (inactive) | > 100 | > 100 µM (inactive) | > 100 µM (inactive) | – | > 100 µM (inactive) | > 100 µM (inactive) | > 100 µM (inactive) | > 100 µM (inactive) | > 100 µM (inactive) |
| CC(C)(C)[C@H]1CO[C@]2(C)[C@@H]3C[C@@H]3C(=O)N12 | – | > 100 µM (inactive) | > 100 µM (inactive) | > 100 µM (inactive) | > 100 µM (inactive) | > 100 µM (inactive) | > 100 µM (inactive) | > 100 µM (inactive) | > 100 µM (inactive) | > 100 | > 100 µM (inactive) | > 100 µM (inactive) | > 100 µM (inactive) | > 100 µM (inactive) | > 100 µM (inactive) | > 100 µM (inactive) | > 100 µM (inactive) | – |
| O=C1[C@H]2C(c3ccccc3)=NN(C(=O)c3ccccc3)[C@H]2C(=O)N1c1ccccc1 | > 100 µM (inactive) | > 100 µM (inactive) | – | > 100 µM (inactive) | > 100 µM (inactive) | > 100 µM (inactive) | > 100 µM (inactive) | > 100 µM (inactive) | – | > 100 | > 100 µM (inactive) | – | – | > 100 µM (inactive) | > 100 µM (inactive) | > 100 µM (inactive) | > 100 µM (inactive) | – |
| COc1ccc(N2C(=O)C3c4[nH]c5ccccc5c4C4CC(C)CC(C)C4C3C2=O)cc1 (configuration not stated) | > 100 µM (inactive) | – | – | – | > 100 µM (inactive) | > 100 µM (inactive) | > 100 µM (inactive) | > 100 µM (inactive) | – | > 100 | > 100 µM (inactive) | > 100 µM (inactive) | > 100 µM (inactive) | > 100 µM (inactive) | > 100 µM (inactive) | > 100 µM (inactive) | > 100 µM (inactive) | > 100 µM (inactive) |
| CC[P+]1(c2ccccc2)CCCCC1 | > 100 µM (inactive) | > 100 µM (inactive) | > 100 µM (inactive) | > 100 µM (inactive) | > 100 µM (inactive) | > 100 µM (inactive) | > 100 µM (inactive) | > 100 µM (inactive) | > 100 µM (inactive) | > 100 | > 100 µM (inactive) | > 100 µM (inactive) | > 100 µM (inactive) | > 100 µM (inactive) | > 100 µM (inactive) | > 100 µM (inactive) | > 100 µM (inactive) | – |
| CC(=O)C(CN(CC(C)C)CC(C)C)C(c1ccccc1)c1c(O)c2ccccc2oc1=O (configuration not stated) | > 100 µM (inactive) | – | > 100 µM (inactive) | – | > 100 µM (inactive) | > 100 µM (inactive) | > 100 µM (inactive) | > 100 µM (inactive) | > 100 µM (inactive) | > 100 | > 100 µM (inactive) | > 100 µM (inactive) | – | – | > 100 µM (inactive) | > 100 µM (inactive) | > 100 µM (inactive) | > 100 µM (inactive) |
| Oc1cc(O)c(Oc2cccc(O)c2O)c(O)c1 | > 100 µM (inactive) | > 100 µM (inactive) | > 100 µM (inactive) | > 100 µM (inactive) | > 100 µM (inactive) | > 100 µM (inactive) | > 100 µM (inactive) | > 100 µM (inactive) | > 100 µM (inactive) | > 100 | > 100 µM (inactive) | 15.5 µM (inactive) | – | > 100 µM (inactive) | > 100 µM (inactive) | 35.6 µM (inactive) | > 100 µM (inactive) | > 100 µM (inactive) |
| COc1ccccc1/C=C\c1cc(OC)c(OC)c(OC)c1 | 4.31 µM (inactive) | 6.89 µM (inactive) | 34 µM (inactive) | 6.85 µM (inactive) | 4.83 µM (inactive) | 6.41 µM (inactive) | 15.2 µM (inactive) | 31.6 µM (inactive) | 8.22 µM (inactive) | 4.2 | 5.01 µM (inactive) | 25.8 µM (inactive) | – | 16.1 µM (inactive) | 4.46 µM (inactive) | 5.9 µM (inactive) | 6.4 µM (inactive) | 7.64 µM (inactive) |
| Cc1cc(N(CCC#N)CCC#N)ccc1/N=N/c1cccc(Cl)c1 | – | > 100 µM (inactive) | > 100 µM (inactive) | 5.75 µM (inactive) | > 100 µM (inactive) | – | > 100 µM (inactive) | > 100 µM (inactive) | 2.96 µM (inactive) | – | > 100 µM (inactive) | > 100 µM (inactive) | – | > 100 µM (inactive) | > 100 µM (inactive) | 70.8 µM (inactive) | > 100 µM (inactive) | > 100 µM (inactive) |
| O=C(c1ccccc1)c1c(C(=O)c2ccccc2)c(-c2ccccc2)c2c(-c3ccccc3)sc(-c3ccccc3)c2c1-c1ccccc1 | – | > 100 µM (inactive) | > 100 µM (inactive) | > 100 µM (inactive) | > 100 µM (inactive) | > 100 µM (inactive) | > 100 µM (inactive) | > 100 µM (inactive) | > 100 µM (inactive) | > 100 | > 100 µM (inactive) | > 100 µM (inactive) | – | > 100 µM (inactive) | > 100 µM (inactive) | > 100 µM (inactive) | > 100 µM (inactive) | > 100 µM (inactive) |
| Cc1ccccc1C1=C(C(=O)Nc2ccc(Cl)c(Cl)c2)NC(=S)NC1N (configuration not stated) | > 100 µM (inactive) | > 100 µM (inactive) | 82.6 µM (inactive) | > 100 µM (inactive) | – | > 100 µM (inactive) | > 100 µM (inactive) | > 100 µM (inactive) | > 100 µM (inactive) | > 100 | > 100 µM (inactive) | > 100 µM (inactive) | – | > 100 µM (inactive) | > 100 µM (inactive) | > 100 µM (inactive) | > 100 µM (inactive) | > 100 µM (inactive) |
| COc1ccc(C2C3=C(COC3=O)Oc3cc4c(cc32)OCO4)cc1 (configuration not stated) | 6.71 µM (inactive) | – | – | 10.8 µM (inactive) | 5.15 µM (inactive) | 32.2 µM (inactive) | 50.5 µM (inactive) | 39.3 µM (inactive) | 7.53 µM (inactive) | 6.27 | 12.7 µM (inactive) | 27.3 µM (inactive) | – | 16.7 µM (inactive) | 13 µM (inactive) | 10.6 µM (inactive) | 19.4 µM (inactive) | – |
